In ChEMBL document CHEMBL1140654 (Bioorg Med Chem Lett, 2007):

Key:
U-937 = assay: Inhibition of TNFalpha production in U937 cells; conditions: Homo sapiens
[1] = molecular target: Mitogen-activated protein kinase 9 (Homo sapiens, UniProt P45984); assay: Inhibition of JNK2
[2] = molecular target: Ribosomal protein S6 kinase alpha-5 (Homo sapiens, UniProt O75582); assay: Inhibition of MSK1
[3] = molecular target: T1, Inhibitor of nuclear factor kappa-B kinase subunit beta (Homo sapiens, UniProt O14920); assay: Inhibition of IKK2
T1 sequence (O14920 whole entry): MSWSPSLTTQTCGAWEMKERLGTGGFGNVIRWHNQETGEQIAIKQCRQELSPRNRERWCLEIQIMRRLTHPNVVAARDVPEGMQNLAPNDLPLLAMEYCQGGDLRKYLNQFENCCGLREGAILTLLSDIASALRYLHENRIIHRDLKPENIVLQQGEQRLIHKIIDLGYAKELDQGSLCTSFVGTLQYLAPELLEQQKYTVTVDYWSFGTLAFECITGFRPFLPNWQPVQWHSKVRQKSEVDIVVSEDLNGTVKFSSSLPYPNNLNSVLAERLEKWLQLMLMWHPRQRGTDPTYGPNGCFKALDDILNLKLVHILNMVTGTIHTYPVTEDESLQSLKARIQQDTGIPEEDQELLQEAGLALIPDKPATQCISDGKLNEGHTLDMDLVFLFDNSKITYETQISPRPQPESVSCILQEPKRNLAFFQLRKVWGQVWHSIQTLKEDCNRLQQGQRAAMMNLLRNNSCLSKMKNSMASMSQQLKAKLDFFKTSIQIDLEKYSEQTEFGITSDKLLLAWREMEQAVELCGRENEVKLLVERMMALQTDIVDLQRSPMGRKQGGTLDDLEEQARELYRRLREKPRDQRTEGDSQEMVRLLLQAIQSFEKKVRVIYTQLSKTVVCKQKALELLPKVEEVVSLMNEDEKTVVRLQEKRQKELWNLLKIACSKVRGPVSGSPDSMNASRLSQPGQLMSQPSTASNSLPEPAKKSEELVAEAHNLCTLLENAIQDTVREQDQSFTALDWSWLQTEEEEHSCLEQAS

[4] = molecular target: MAP kinase-activated protein kinase 3 (Homo sapiens, UniProt Q16644); assay: Inhibition of MK3; type: single protein
Chain of MAP kinase-activated protein kinase 3 (Q16644 whole entry): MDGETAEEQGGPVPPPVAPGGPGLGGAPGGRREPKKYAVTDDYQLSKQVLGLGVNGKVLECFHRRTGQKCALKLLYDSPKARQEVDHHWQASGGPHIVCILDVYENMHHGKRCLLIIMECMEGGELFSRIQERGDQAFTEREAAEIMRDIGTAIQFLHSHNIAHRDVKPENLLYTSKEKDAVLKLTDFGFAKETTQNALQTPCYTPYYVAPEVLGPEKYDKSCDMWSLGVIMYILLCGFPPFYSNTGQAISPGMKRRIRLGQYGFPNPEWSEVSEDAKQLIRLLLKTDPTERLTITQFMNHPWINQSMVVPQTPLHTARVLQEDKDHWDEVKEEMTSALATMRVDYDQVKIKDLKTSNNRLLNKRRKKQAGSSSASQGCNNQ

[5] = molecular target: MAP kinase-interacting serine/threonine-protein kinase 1 (Homo sapiens, UniProt Q9BUB5); assay: Inhibition of MNK1
Chain of MAP kinase-interacting serine/threonine-protein kinase 1 (Q9BUB5 whole entry): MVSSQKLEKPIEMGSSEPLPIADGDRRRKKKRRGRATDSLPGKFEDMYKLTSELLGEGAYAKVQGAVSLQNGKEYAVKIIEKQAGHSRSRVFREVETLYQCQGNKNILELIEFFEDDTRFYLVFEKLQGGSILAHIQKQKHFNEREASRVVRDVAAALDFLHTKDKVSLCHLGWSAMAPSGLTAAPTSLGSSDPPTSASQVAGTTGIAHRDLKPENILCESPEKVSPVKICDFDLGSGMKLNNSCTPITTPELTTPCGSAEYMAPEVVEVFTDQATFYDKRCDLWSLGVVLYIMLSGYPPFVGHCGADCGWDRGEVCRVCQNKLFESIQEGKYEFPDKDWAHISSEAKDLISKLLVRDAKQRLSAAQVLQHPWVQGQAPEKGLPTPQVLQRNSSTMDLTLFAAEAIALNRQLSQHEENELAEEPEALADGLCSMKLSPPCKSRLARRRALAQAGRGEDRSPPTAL

[6] = molecular target: T2, MAP kinase-activated protein kinase 5 (Homo sapiens, UniProt Q8IW41); assay: Inhibition of PRAK
T2 sequence (Q8IW41 whole entry): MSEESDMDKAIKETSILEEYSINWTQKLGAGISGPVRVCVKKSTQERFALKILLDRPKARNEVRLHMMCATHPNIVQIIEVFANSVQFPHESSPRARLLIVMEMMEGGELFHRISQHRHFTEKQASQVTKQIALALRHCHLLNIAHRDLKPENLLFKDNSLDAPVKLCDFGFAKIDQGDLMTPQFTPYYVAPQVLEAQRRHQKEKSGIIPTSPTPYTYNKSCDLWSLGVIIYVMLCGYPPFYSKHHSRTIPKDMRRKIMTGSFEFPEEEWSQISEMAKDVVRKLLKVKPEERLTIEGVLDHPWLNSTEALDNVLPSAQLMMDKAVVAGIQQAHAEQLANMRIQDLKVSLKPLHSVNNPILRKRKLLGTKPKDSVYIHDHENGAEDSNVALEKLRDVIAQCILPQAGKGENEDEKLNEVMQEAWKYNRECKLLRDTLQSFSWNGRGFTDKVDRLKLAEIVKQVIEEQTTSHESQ

[7] = molecular target: Mitogen-activated protein kinase 14 (Homo sapiens, UniProt Q16539); assay: Inhibition of p38alpha
Chain of Mitogen-activated protein kinase 14 (Q16539 whole entry): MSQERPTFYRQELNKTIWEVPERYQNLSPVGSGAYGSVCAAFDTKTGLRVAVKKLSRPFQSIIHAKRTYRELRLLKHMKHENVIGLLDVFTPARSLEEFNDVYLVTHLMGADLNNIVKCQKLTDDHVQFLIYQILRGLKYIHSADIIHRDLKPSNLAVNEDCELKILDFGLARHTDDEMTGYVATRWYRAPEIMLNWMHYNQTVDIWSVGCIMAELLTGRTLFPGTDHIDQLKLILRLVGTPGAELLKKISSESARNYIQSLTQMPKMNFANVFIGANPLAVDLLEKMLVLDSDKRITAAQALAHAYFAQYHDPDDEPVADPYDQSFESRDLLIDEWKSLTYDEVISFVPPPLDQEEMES

[8] = molecular target: MAP kinase-activated protein kinase 2 (Homo sapiens, UniProt P49137)
Chain of MAP kinase-activated protein kinase 2 (P49137 whole entry): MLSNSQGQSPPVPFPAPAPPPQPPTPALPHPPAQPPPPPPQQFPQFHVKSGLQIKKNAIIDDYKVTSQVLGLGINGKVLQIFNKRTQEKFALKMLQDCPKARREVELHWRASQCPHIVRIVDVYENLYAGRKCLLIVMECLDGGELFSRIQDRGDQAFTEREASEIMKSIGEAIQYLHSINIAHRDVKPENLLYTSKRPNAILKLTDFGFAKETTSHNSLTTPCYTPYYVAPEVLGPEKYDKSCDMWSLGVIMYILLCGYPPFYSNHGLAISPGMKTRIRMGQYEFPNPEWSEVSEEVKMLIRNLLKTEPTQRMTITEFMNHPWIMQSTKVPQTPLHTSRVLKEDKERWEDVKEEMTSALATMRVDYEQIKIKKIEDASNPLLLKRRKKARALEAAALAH

[9] = molecular target: Mitogen-activated protein kinase 1 (Homo sapiens, UniProt P28482); assay: Inhibition of ERK2
Chain of Mitogen-activated protein kinase 1 (P28482 whole entry): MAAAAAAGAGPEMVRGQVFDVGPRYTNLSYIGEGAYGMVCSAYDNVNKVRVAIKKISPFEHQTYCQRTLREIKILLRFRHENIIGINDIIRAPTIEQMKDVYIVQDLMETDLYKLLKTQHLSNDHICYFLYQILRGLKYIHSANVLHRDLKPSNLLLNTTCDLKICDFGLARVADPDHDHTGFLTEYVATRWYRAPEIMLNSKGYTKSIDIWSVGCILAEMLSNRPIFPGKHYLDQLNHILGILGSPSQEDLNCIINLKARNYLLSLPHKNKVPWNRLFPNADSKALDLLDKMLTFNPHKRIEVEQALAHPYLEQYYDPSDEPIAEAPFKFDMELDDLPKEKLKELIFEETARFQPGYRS

Rattus norvegicus = assay: Inhibition of TNFalpha production in rat at 40 mg/kg, ip administered 1 hr prior to LPS challenge; type: functional; parameters: scale not given: the % may be the effect or the level left; conditions: route intraperitoneal

Chain of Mitogen-activated protein kinase 9 (P45984 whole entry): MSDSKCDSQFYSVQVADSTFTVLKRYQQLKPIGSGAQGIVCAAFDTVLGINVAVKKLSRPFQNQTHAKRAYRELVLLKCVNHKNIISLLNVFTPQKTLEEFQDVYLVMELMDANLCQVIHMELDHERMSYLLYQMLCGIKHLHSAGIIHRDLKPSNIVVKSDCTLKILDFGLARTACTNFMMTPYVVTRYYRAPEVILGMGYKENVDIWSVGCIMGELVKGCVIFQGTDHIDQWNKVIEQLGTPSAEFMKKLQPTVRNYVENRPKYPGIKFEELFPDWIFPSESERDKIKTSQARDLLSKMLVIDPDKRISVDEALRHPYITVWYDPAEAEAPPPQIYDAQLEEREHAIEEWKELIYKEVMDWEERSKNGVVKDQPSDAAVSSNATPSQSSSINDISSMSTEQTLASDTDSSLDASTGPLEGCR
Chain of Ribosomal protein S6 kinase alpha-5 (O75582 whole entry): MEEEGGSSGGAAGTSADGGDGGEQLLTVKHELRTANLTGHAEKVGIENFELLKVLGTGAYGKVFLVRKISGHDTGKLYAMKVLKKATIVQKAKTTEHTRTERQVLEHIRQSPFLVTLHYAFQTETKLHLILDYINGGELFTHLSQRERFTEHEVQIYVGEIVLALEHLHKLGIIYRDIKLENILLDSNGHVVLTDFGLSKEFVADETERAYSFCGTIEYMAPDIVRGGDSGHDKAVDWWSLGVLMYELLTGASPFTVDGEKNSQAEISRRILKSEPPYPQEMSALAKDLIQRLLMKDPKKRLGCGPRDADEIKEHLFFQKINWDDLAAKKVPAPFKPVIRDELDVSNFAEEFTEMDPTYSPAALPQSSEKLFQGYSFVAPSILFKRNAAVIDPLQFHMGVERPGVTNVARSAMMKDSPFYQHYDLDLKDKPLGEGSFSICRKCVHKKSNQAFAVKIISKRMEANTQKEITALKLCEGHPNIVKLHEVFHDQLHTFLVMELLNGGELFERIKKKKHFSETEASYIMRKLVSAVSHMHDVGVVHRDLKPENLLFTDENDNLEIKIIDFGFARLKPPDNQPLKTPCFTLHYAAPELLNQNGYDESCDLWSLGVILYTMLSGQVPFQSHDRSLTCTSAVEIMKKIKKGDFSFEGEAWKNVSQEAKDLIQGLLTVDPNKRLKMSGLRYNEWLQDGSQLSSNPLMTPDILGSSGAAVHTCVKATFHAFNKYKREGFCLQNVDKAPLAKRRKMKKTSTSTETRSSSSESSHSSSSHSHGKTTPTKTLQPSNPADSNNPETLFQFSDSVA

`C=CCOC(=O)C1c2[nH]c3ccc(OC)cc3c2C2CCN1C2` (centres undefined) was tested. Which IC50 (U-937) did it give?
Its IC50 is 14.4 µM.

Which IC50 (U-937) does the source give for `COc1ccc2[nH]c3c(c2c1)C1CCN(C1)C3C(=O)OCc1ccccc1` (centres undefined) here?
Its IC50 is 1.7 µM.

`COc1ccc2[nH]c3c(c2c1)C1CCN(C1)C3C(=O)O` (centres undefined) was tested. Which IC50 [1] did it give?
Its IC50 is > 200 µM.

What about the IC50 [2] of the same compound?
Its IC50 is > 200 µM.

What about the IC50 [3] of the same compound?
The IC50 was > 200 µM.

What about the IC50 [4] of the same compound?
Its IC50 is 90 µM.

And the IC50 [5]?
The IC50 was > 200 µM.

And the IC50 [6]?
Its IC50 is 24 µM.

What about the IC50 [7] of the same compound?
Its IC50 is > 100 µM.

And the IC50 (U-937)?
The IC50 was 80.8 µM.

With `COc1ccc2[nH]c3c(c2c1)C1CCCN(C1)C3C(=O)O` (centres undefined) as the compound, how does the IC50 [4] read?
The IC50 was 160 µM.

Which IC50 (U-937) does the source give for `CCOC(=O)C1c2[nH]c3ccc(OC)cc3c2C2CCN1C2` (centres undefined) here?
Its IC50 is 5.6 µM.

For `COc1ccc2[nH]c3c(c2c1)CCNC3c1nnn[nH]1` (centres undefined), which IC50 [8] is on record?
The IC50 was 130 µM.

What does the source list for `COc1ccc2[nH]c3c(c2c1)CCNC3C(=O)O` (centres undefined)?
IC50 [1]: > 200 µM; IC50 [2]: > 200 µM; IC50 [9]: > 100 µM; IC50 [3]: > 200 µM; IC50 [4]: > 200 µM; IC50 [6]: 19 µM; IC50 [7]: > 100 µM

Which IC50 [8] does the source give for `CC(=O)Oc1ccc2[nH]c3c(c2c1)CCNC3C(=O)O` (centres undefined) here?
The IC50 was 170 µM.

Which IC50 (U-937) does the source give for `COc1ccc2[nH]c3c(c2c1)C1CCN(C1)C3C(=O)OC(C)c1ccccc1` (centres undefined) here?
Its IC50 is 10.3 µM.

Which results are given for `CCCOC(=O)C1c2[nH]c3ccc(OC)cc3c2C2CCN1C2` (centres undefined)?
IC50 (U-937): 0.83 µM; Activity (Rattus norvegicus): 84%
